# Assay results from patent US5861424A, “Composition and method for treating cancer” (priority 1995, dated 1999).
# Where two headings read alike, the source gives them in different places.
# What was measured:
# [1] = test system: human colon carcinoma CX-1; assay: Anti-human colon carcinoma CX-1 activity in nude mice, tumor inhibition; type: in vivo, human colon carcinoma in Swiss nu/nu mice; settings: Mus musculus, ip, 24 h
# Source text: Human colon carcinoma cell line CX-1 has been chosen by the National Cancer Institute as a mode for cancer drug screening (NCI Protocol 3C2H2). It was established in culture from the surgical explant of the primary colon adenocarcinoma of a person with no previous chemotherapy. The cultured CX-1 cells, upon subcutaneous injection, can grow readily in nude mice as a moderately- to well-differentiated human colon carcinoma. CEA is expressed as expected for differentiated colon carcinoma cells. Abundant keratin, consistent with epithelial origin, is present. Increased uptake and prolonged retention of delocalized lipophilic cations are observed.
# Swiss nu/nu mice obtained from Taconic Farm were housed in a pathogen-free environment. Tumors subcutaneously passaged in nude mice were excised under sterile conditions and converted to a single cell suspension using a metal grid with a 0.4 mm mesh. Red blood cells were lysed by incubation with 0.17M ammonium chloride at 4° C. for 20 minutes. Cells were scored for viability with trypan blue. Viable CX-1 cells (2.5 million) made up in 0.1 ml of cell culture medium were injected subcutaneously into each nude mouse. The mice were randomly allocated into a control group (five mice) and a treatment group (five mice per group). The drug treatment was commenced the next day. Doses and schedules were developed empirically and were based mainly on information on LD50 and LD10 obtained from preliminary toxicity studies. The control group received an equivalent volume of hydroxylpropyl-β-cyclodextrin-5% glucose solution.
# The pharmaceutical compositions tested comprised solutions in 5% glucose subjected to sonication at concentrations of 1 mg/ml. Those compounds which were not completely dissolved by this procedure were dissolved in hydroxypropyl-β-cyclodextrin using the following method. Hydroxypropyl-β-cyclodextrin (45 g) was mixed with 100 ml of sterilized, double distilled water and stirred for four hours. Each of the compounds to be tested (20 mg) was mixed with 10 ml of hydroxypropyl-β-cyclodextrin solution and sonicated for 60 minutes in the dark. This solution was then diluted in 5% glucose to yield a final compound concentration of 0.5 mg/ml, and further sonicated for 60 minutes in the dark to assure that the compound was completely dissolved.
# When the growth of tumors in the control group reached the exponential phase and the size of the tumor was palpable (usually 20 to 30 days after tumor implantation), the experiments were terminated. Tumors in each mouse were excised and weighed using an analytical balance. Total tumor weight in each group from five mice was calculated. Per cent tumor inhibition between the treated group and the control group was then calculated for each group.
# [2] = test system: human colon carcinoma cell line CX-1; assay: Colony formation assay, human colon carcinoma CX-1; type: cell-based; settings: Table III; for IC50: Homo sapiens, Colon carcinoma cell, read-out: CX-1 (IC50); for IC50 / CX-1 (IC50): 24 h treatment, colony count after 7 to 10 days; for Selectivity (ratio of IC50 for CV-1 and IC50 for CX-1): CV-1/CX-1
# Protocol: Human colon carcinoma cell line CX-1 or normal monkey kidney epithelial cell line CV-1 was chosen as representatives of cancer cells and normal cells, respectively. […] CX-1 cells (2,000 cells/well) and CV-1 cells (1,000 cells/well) were plated in 24-well plastic culture plates. […] The control received culture media only. Cells were treated with compounds of General Formulas (1) to (6) at 37° C. for 24 hours. After rinsing with fresh culture medium three times, the cells were further incubated at 37° C. for 7 to 10 days. Cell colonies were fixed and stained with 2% crystal violet in 70% ethanol for 10 minutes and rinsed in water. […] The selectivity is defined as the ratio of IC50 for CV-1 and IC50 for CX-1.
# [3] = test system: normal monkey kidney epithelial cell line CV-1; assay: Colony formation assay, normal monkey kidney epithelial cells CV-1; settings: for IC50: Primates, Epithelial cell;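 for all read-outs here: colonies visualized by crystal violet staining, incubation at 37 °C, IC50 relative to untreated wells given culture medium alone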
# [4] = test system: human pancreatic carcinoma CRL 1420 cell line; assay: Colony formation assay, human pancreatic carcinoma CRL 1420; type: cell-based; settings: Table VII; for CRL-1420 (IC50) / IC50: 24 h treatment; for Selectivity (CV-1 IC50 / CRL-1420 IC50): CV-1/CRL-1420; for IC50: Homo sapiens, 24 h
# Source text: (§1) The control received culture media only.
# The Selectivity values, CRL 1420 values and CV-1 values for compounds of the General Formulas (1) to (6) used in the present invention are shown in Table VII below.
# [5] = test system: human bladder carcinoma EJ cell line; assay: Colony formation assay, human bladder carcinoma EJ; type: cell-based; settings: Table IV; for EJ (IC50) / IC50: 24 h treatment; for Selectivity (CV-1 IC50 / EJ IC50): CV-1/EJ; for IC50: Homo sapiens, EJ, 24 h, read-out: EJ (IC50)
# Source text: as §1
# [6] = test system: human melanoma LOX cell line; assay: Colony formation assay, human melanoma LOX; type: cell-based; settings: Table V; for Selectivity (CV-1 IC50 / LOX IC50): CV-1/LOX
# Source text: as §1
# [7] = test system: human breast carcinoma MCF-7 cell line; assay: Colony formation assay, human breast carcinoma MCF-7; type: cell-based; settings: Table VI; for IC50: Homo sapiens, MCF7, 24 h, read-out: MCF-7 (IC50); for Selectivity (CV-1 IC50 / MCF-7 IC50): CV-1/MCF-7
# Source text: as §1
# The Selectivity values, MCF-7 values and CV-1 values for compounds of the General Formulas (1) to (6) used in the present invention are shown in Table VI below.
# human melanoma LOX = assay: Survival of nude mice implanted with human melanoma LOX; type: in vivo, human melanoma in male athymic Swiss nu/nu mouse; settings: Mus musculus, ip, 24 h, read-out: T/C (survival)
# Protocol: LOX, a human melanoma cell line, grown subcutaneously in nude mice was excised, trypsinized to yield a single cell suspension using a metal grid with a […]. Red blood cells were lysed by incubation with 0.17 molar ammonium chloride at 4° C. for 20 minutes. Five million viable trypan blue negative cells made up in 0.1 ml of Dulbecco modified Eagles' medium (DME) were injected into the peritoneal cavity of a male athymic Swiss nu/nu mouse. The control group and each treatment group consisted of 5 to 10 mice. Treatment was commenced the following day by intraperitoneal injection.
# Ten control mice received 0.25 ml of 2% dextrose on those days the treated groups were injected with the compounds of this invention. The compounds of the General Formulas. (1) to (6) used in this invention which were tested are listed in Table VIII below and the results obtained are shown in Table VIII and FIG. 1-6 of the accompanying drawings. T/C is the ratio, expressed as a percentage of the mean survival age of the treated group to the mean survival age of the untreated control group.
# [8] = i.p. on day 1, 4, 7, 11, 15, 18
# [9] = read-out: CV-1 (IC50), Table III, 24 h treatment, colony count after 7 to 10 days
# [10] = read-out: CV-1 (IC50), Table IV
# [11] = read-out: CV-1 (IC50), Table VI
# [12] = read-out: CV-1 (IC50), Table VII
# [13] = i.p. on day 1, 7**, 9** (**10 mg/kg)
structure (smiles),measurement,setting,value
CCn1c(=Cc2sc3c4ccccc4ccc3[n+]2CC)sc(=CC=C2Sc3ccc4ccccc4c3N2C)c1=O [Compound 55],inhibition in vivo at 20 mg/kg,[1]; [8],55.3%
CN1C(=CC=c2sc(=Cc3sc4c5ccccc5ccc4[n+]3C)n(C)c2=O)Sc2ccc3ccccc3c21 [Compound 48],inhibition in vivo at 20 mg/kg,[1]; [8],72.4%
same,IC50,[2],0.005 µg/mL
same,Selectivity (ratio of IC50 for CV-1 and IC50 for CX-1),[2],4000
same,IC50,[3]; [9],20 µg/mL
CCN1C(=CC=c2sc(=Cc3sc4c5ccccc5ccc4[n+]3CC)n(CC)c2=O)Sc2ccc3ccccc3c21 [Compound 54],CRL-1420 (IC50),[4],0.05 µg/mL
same,Selectivity (CV-1 IC50 / CRL-1420 IC50),[4],400
same,inhibition in vivo at 5 mg/kg,"[1]; 5 mg/kg, i.p. on day 1, 5, 9, 13",42.6%
same,EJ (IC50),[5],0.04 µg/mL
same,Selectivity (CV-1 IC50 / EJ IC50),[5],500
same,LOX (IC50),[6]; 24 h treatment,0.07 µg/mL
same,Selectivity (CV-1 IC50 / LOX IC50),[6],286
same,CX-1 (IC50),[2],0.04 µg/mL
same,Selectivity (ratio of IC50 for CV-1 and IC50 for CX-1),[2],500
same,IC50,[3]; [10],20 µg/mL
same,IC50,"[3]; read-out: CV-1 (IC50), Table V",20 µg/mL
same,IC50,[3]; [11],20 µg/mL
same,IC50,[3]; [12],20 µg/mL
same,IC50,[7]; 24 h treatment,0.05 µg/mL
same,Selectivity (CV-1 IC50 / MCF-7 IC50),[7],400
C=CCn1c(=Cc2cc[n+](CC)c3ccccc23)sc(=CC=C2C=CN(CC)c3ccccc32)c1=O [Compound 304],inhibition in vivo at 20 mg/kg,[1]; [13],65.9%
CCN1C(=CC=c2sc(=Cc3sc4c5ccccc5ccc4[n+]3C)n(CC)c2=O)Sc2ccc3ccccc3c21 [Compound 52],CRL-1420 (IC50),[4],0.06 µg/mL
same,Selectivity (CV-1 IC50 / CRL-1420 IC50),[4],> 333
same,EJ (IC50),[5],0.05 µg/mL
same,Selectivity (CV-1 IC50 / EJ IC50),[5],> 400
same,LOX (IC50),[6]; 24 h treatment,0.08 µg/mL
same,Selectivity (CV-1 IC50 / LOX IC50),[6],> 250
same,CX-1 (IC50),[2],0.03 µg/mL
same,Selectivity (ratio of IC50 for CV-1 and IC50 for CX-1),[2],> 667
same,CV-1 (IC50),"[3]; Table III, 24 h treatment, colony count after 7 to 10 days",> 20 µg/mL
same,CV-1 (IC50),[3]; Table IV,> 20 µg/mL
same,CV-1 (IC50),[3]; Table V,> 20 µg/mL
same,CV-1 (IC50),[3]; Table VI,> 20 µg/mL
same,CV-1 (IC50),[3]; Table VII,> 20 µg/mL
same,MCF-7 (IC50),[7]; 24 h treatment,0.03 µg/mL
same,Selectivity (CV-1 IC50 / MCF-7 IC50),[7],> 666
same,response vs control in vivo at 10 mg/kg,"human melanoma LOX; 10 mg/kg, i.p. on day 1, 2, 3, 6, 9",168%
CC[n+]1c(C=c2sc(=CC=C3Sc4ccc5ccccc5c4N3C)c(=O)n2C)sc2c3ccccc3ccc21 [Compound 47],IC50,[4],0.064 µg/mL
same,Selectivity (CV-1 IC50 / CRL-1420 IC50),[4],312
same,inhibition in vivo at 20 mg/kg,[1]; [8],64.1%
same,IC50,[5],0.082 µg/mL
same,Selectivity (CV-1 IC50 / EJ IC50),[5],244
same,IC50,"[6]; Homo sapiens, LOX, 24 h, 24 h treatment, read-out: LOX (IC50)",0.082 µg/mL
same,Selectivity (CV-1 IC50 / LOX IC50),[6],244
same,IC50,[2],0.05 µg/mL
same,Selectivity (ratio of IC50 for CV-1 and IC50 for CX-1),[2],400
same,IC50,[3]; [9],20 µg/mL
same,IC50,[3]; [10],20 µg/mL
same,IC50,"[3]; read-out: CV-1 (IC50), Table V",20 µg/mL
same,IC50,[3]; [11],20 µg/mL
same,IC50,[3]; [12],20 µg/mL
same,IC50,[7]; 24 h treatment,0.1 µg/mL
same,Selectivity (CV-1 IC50 / MCF-7 IC50),[7],200
same,response vs control in vivo at 20 mg/kg,"human melanoma LOX; 20 mg/kg, i.p. on day 1, 3, 6, 9, 13, 16",156%
CCn1c(=Cc2sc3c4ccccc4ccc3[n+]2C)sc(=CC=C2Sc3ccc4ccccc4c3N2C)c1=O [Compound 44],inhibition in vivo at 20 mg/kg,[1]; [8],54.8%
same,IC50,[2],0.02 µg/mL
same,Selectivity (ratio of IC50 for CV-1 and IC50 for CX-1),[2],1000
same,IC50,[3]; [9],20 µg/mL
CCn1c(=Cc2sc3c4ccccc4ccc3[n+]2CC)sc(=CC=C2Sc3ccc4ccccc4c3N2C)c1=O [Compound 32],CRL-1420 (IC50),[4],< 0.1 µg/mL
same,Selectivity (CV-1 IC50 / CRL-1420 IC50),[4],> 200
same,inhibition in vivo at 20 mg/kg,"[1]; i.p. on day 1, 2, 4, 6, 8",40.5%
same,IC50,[2],0.02 µg/mL
same,Selectivity (ratio of IC50 for CV-1 and IC50 for CX-1),[2],1000
same,IC50,[3]; [9],20 µg/mL
same,IC50,[3]; [12],20 µg/mL
same,response vs control in vivo at 40 mg/kg,"human melanoma LOX; 40 mg/kg, i.p. on day 1, 2, 3, 4, 5, 7, 8, 9, 10",231%
CCn1c(=Cc2sc3c4ccccc4ccc3[n+]2CC)sc(=CC=C2Sc3ccc4ccccc4c3N2C)c1=O [Compound 56],CRL-1420 (IC50),[4],< 0.046 µg/mL
same,Selectivity (CV-1 IC50 / CRL-1420 IC50),[4],> 435
same,inhibition in vivo at 20 mg/kg,"[1]; i.p. on day 1, 5, 8, 11",82.6%
same,IC50,[5],0.09 µg/mL
same,Selectivity (CV-1 IC50 / EJ IC50),[5],222
same,CX-1 (IC50),[2],0.1 µg/mL
same,Selectivity (ratio of IC50 for CV-1 and IC50 for CX-1),[2],200
same,IC50,[3]; [10],20 µg/mL
C=CCn1c(=Cc2cc[n+](CC)c3ccccc23)sc(=CC=C2C=Cc3ccccc3N2CC)c1=O [Compound 249],IC50,[4],0.045 µg/mL
same,Selectivity (CV-1 IC50 / CRL-1420 IC50),[4],111
same,inhibition in vivo at 20 mg/kg,"[1]; i.p. on day 1, 5, 7, 9",41.1%
same,IC50,[2],0.05 µg/mL
same,Selectivity (ratio of IC50 for CV-1 and IC50 for CX-1),[2],100
same,IC50,[3]; [9],5 µg/mL
same,IC50,[3]; [12],5 µg/mL
CCN1CCSC1=CC=c1sc(=Cc2cc[n+](CC)c3ccccc23)n(CC)c1=O [Compound 146],inhibition in vivo at 20 mg/kg,[1]; [13],59.3%
